By solubility is commonly meant the dissolved amount per volume that the medium holds.

Each structure is given as a SMILES string. Values after ≈ are worked out from the molar mass of the structure shown.

The data set is described as follows: Evaluation of solubility in mesitylene. It counts as physicochemical. To be noted: organic solvent or mixture, thermodynamic from solid; 10 mg compound in test tube, heated at 160° C., mesitylene added until completely dissolved. As for the experimental part:
10 mg of the obtained Compounds D1 to D9 and Comparative Compound C1 were each placed in a test tube, mesitylene was added thereto, and were heated at a temperature of 160° C. Mesitylene was added thereto until the compounds were completely dissolved and the solubility was calculated.

Consider `CC(C)(C)c1cc(-c2ccc3c4c5c6ccc(C(C)(C)C)cc6n6c7cc(-c8cc(C(C)(C)C)cc(C(C)(C)C)c8)ccc7c(c7c8ccc(C(C)(C)C)cc8n(c3c2)c47)c56)cc(C(C)(C)C)c1` [Compound D5], for which the solubility came to 10100 µg/mL (≈ 11.3 mM).
Under `c1ccc(-c2cccc(-c3ccccc3)c2-c2ccc3c4c5c6ccccc6n6c7cc(-c8c(-c9ccccc9)cccc8-c8ccccc8)ccc7c(c7c8ccccc8n(c3c2)c74)c56)cc1` [Compound D7] stands 3100 µg/mL (≈ 3.6 mM); under `CC(C)(C)c1cc(-c2ccc3c4c5c6ccccc6n6c7cc(-c8cc(C(C)(C)C)cc(C(C)(C)C)c8)ccc7c(c7c8ccccc8n(c3c2)c74)c56)cc(C(C)(C)C)c1` [Compound D4], 3200 µg/mL (≈ 4.1 mM); under `CC(C)(C)c1ccc(-c2ccc3c(c2)c2c4c5ccccc5n5c6ccc(-c7ccc(C(C)(C)C)cc7)cc6c(c6c7ccccc7n3c62)c45)cc1` [Compound D2], 1300 µg/mL (≈ 1.94 mM).
Consider `CC(C)(C)c1ccc(-c2ccc3c4c5c6ccccc6n6c7cc(-c8ccc(C(C)(C)C)cc8)ccc7c(c7c8ccccc8n(c3c2)c74)c56)cc1` [Compound D3], for which the solubility stood at 1000 µg/mL (≈ 1.5 mM).
Under `CC(C)(C)c1cc(-c2ccc3c4c5c6cc(C(C)(C)C)ccc6n6c7cc(-c8cc(C(C)(C)C)cc(C(C)(C)C)c8)ccc7c(c7c8cc(C(C)(C)C)ccc8n(c3c2)c74)c56)cc(C(C)(C)C)c1` [Compound D6] stands 1000 µg/mL (≈ 1.12 mM); under `Cc1cc(C)c(-c2ccc3c(c2)c2c4c5ccccc5n5c6ccc(-c7c(C)cc(C)cc7C)cc6c(c6c7ccccc7n3c62)c45)c(C)c1` [Compound D1], 2000 µg/mL (≈ 3.12 mM).
Then `CC(C)(C)c1cc(-c2ccc3c4c5c6cccc(-c7ccccc7)c6n6c7cc(-c8cc(C(C)(C)C)cc(C(C)(C)C)c8)ccc7c(c7c8cccc(-c9ccccc9)c8n(c3c2)c47)c56)cc(C(C)(C)C)c1` [Compound D9], with 3000 µg/mL (≈ 3.21 mM).
Consider `CC(C)(C)c1cc(-c2cccc3c4c5c6ccccc6n6c7c(-c8cc(C(C)(C)C)cc(C(C)(C)C)c8)cccc7c(c7c8ccccc8n(c23)c74)c56)cc(C(C)(C)C)c1` [Compound D8], for which the solubility came out at 10300 µg/mL (≈ 13.2 mM).
